The data set has as its system CCRIS mutagenicity, Ames/micronucleus/aberration tests. In words: CCRIS mutagenicity studies.
Setting [1] is: Test System: AMES SALMONELLA TYPHIMURIUM, Strain/Indicator: TA98, Metabolic Activation: NONE, Method: PREINCUBATION
Where [2] appears, read: Test System: AMES SALMONELLA TYPHIMURIUM, Strain/Indicator: TA100, Metabolic Activation: NONE, Method: PREINCUBATION
[3] abbreviates: Test System: AMES SALMONELLA TYPHIMURIUM, Strain/Indicator: TA1535, Metabolic Activation: NONE, Method: PREINCUBATION

Results on five molecules are retold here after PubChem BioAssay AID1259407 (Chemical Carcinogenesis Research Information System (CCRIS), 2018).

SMILES strings stand for the structures. Calls of active or inactive are those of the source. The rule behind the calls is not given here.

Take `CCC#N`: the mutagenic call is “inactive; negative” (End Point: IN VITRO CHROMOSOMAL ABERRATIONS, Test System: CHO-LB CELLS, Metabolic Activation: NONE); “inactive; negative” (End Point: IN VITRO CHROMOSOMAL ABERRATIONS, Test System: CHO-LB CELLS, Metabolic Activation: RAT, LIVER, S-9, AROCLOR 1254); “inactive; negative” (Test System: AMES SALMONELLA TYPHIMURIUM, Strain/Indicator: TA97, Metabolic Activation: HAMSTER, LIVER, S-9, AROCLOR 1254 (10 OR 30%), Method: PREINCUBATION); “inactive; negative” (Test System: AMES SALMONELLA TYPHIMURIUM, Strain/Indicator: TA97, Metabolic Activation: NONE, Method: PREINCUBATION); “inactive; negative” (Test System: AMES SALMONELLA TYPHIMURIUM, Strain/Indicator: TA97, Metabolic Activation: RAT, LIVER, S-9, AROCLOR 1254 (10 OR 30%), Method: PREINCUBATION); “inactive; negative” (Test System: AMES SALMONELLA TYPHIMURIUM, Strain/Indicator: TA98, Metabolic Activation: HAMSTER, LIVER, S-9, AROCLOR 1254 (10 OR 30%), Method: PREINCUBATION). The mutagenic call under setting [1] was “inactive; negative”; the mutagenic call (Test System: AMES SALMONELLA TYPHIMURIUM, Strain/Indicator: TA98, Metabolic Activation: RAT, LIVER, S-9, AROCLOR 1254 (10 OR 30%), Method: PREINCUBATION) was “inactive; negative”; the mutagenic call (Test System: AMES SALMONELLA TYPHIMURIUM, Strain/Indicator: TA100, Metabolic Activation: HAMSTER, LIVER, S-9, AROCLOR 1254 (10 OR 30%), Method: PREINCUBATION) was “inactive; negative”; the mutagenic call under setting [2] is “inactive; negative”; the mutagenic call (Test System: AMES SALMONELLA TYPHIMURIUM, Strain/Indicator: TA100, Metabolic Activation: RAT, LIVER, S-9, AROCLOR 1254 (10 OR 30%), Method: PREINCUBATION) was “inactive; negative”; the mutagenic call (Test System: AMES SALMONELLA TYPHIMURIUM, Strain/Indicator: TA1535, Metabolic Activation: HAMSTER, LIVER, S-9, AROCLOR 1254 (10 OR 30%), Method: PREINCUBATION) is “inactive; negative”. Further, the mutagenic call by setting is: under setting [3], “inactive; negative”; (Test System: AMES SALMONELLA TYPHIMURIUM, Strain/Indicator: TA1535, Metabolic Activation: RAT, LIVER, S-9, AROCLOR 1254 (10 OR 30%), Method: PREINCUBATION) “inactive; negative”.

In the case of `c1ccc(-c2cccnc2)nc1`, the mutagenic call was “active; positive” (Test System: AMES SALMONELLA TYPHIMURIUM, Strain/Indicator: TA97, Metabolic Activation: RAT, LIVER, S-9, PHENOBARBITAL, Method: STANDARD PLATE); “active; positive” (Test System: AMES SALMONELLA TYPHIMURIUM, Strain/Indicator: TA97, Metabolic Activation: RAT, LIVER, S-9, SODIUM PHENOBARBITAL, Method: PREINCUBATION); “inactive; negative” (Test System: AMES SALMONELLA TYPHIMURIUM, Strain/Indicator: TA98, Metabolic Activation: RAT, LIVER, S-9, PHENOBARBITAL, Method: STANDARD PLATE); “inactive; negative” (Test System: AMES SALMONELLA TYPHIMURIUM, Strain/Indicator: TA100, Metabolic Activation: RAT, LIVER, S-9, PHENOBARBITAL, Method: STANDARD PLATE); “active; positive” (Test System: AMES SALMONELLA TYPHIMURIUM, Strain/Indicator: TA100, Metabolic Activation: RAT, LIVER, S-9, SODIUM PHENOBARBITAL, Method: PREINCUBATION); “inactive; negative” (Test System: AMES SALMONELLA TYPHIMURIUM, Strain/Indicator: TA1535, Metabolic Activation: RAT, LIVER, S-9, PHENOBARBITAL, Method: STANDARD PLATE). In addition, the mutagenic call by setting is: (Test System: AMES SALMONELLA TYPHIMURIUM, Strain/Indicator: TA1537, Metabolic Activation: RAT, LIVER, S-9, PHENOBARBITAL, Method: STANDARD PLATE) “active; positive”; (Test System: AMES SALMONELLA TYPHIMURIUM, Strain/Indicator: TA1538, Metabolic Activation: RAT, LIVER, S-9, PHENOBARBITAL, Method: STANDARD PLATE) “inactive; negative”.

Take `OC1CCCCC1`: the mutagenic call (Test System: AMES SALMONELLA TYPHIMURIUM, Strain/Indicator: TA98, Metabolic Activation: HAMSTER, LIVER, S-9, AROCLOR 1254, Method: PREINCUBATION) is “inactive; negative”; the mutagenic call under setting [1] was “inactive; negative”; the mutagenic call (Test System: AMES SALMONELLA TYPHIMURIUM, Strain/Indicator: TA98, Metabolic Activation: RAT, LIVER, S-9, AROCLOR 1254, Method: PREINCUBATION) was “inactive; negative”; the mutagenic call (Test System: AMES SALMONELLA TYPHIMURIUM, Strain/Indicator: TA100, Metabolic Activation: HAMSTER, LIVER, S-9, AROCLOR 1254, Method: PREINCUBATION) was “inactive; negative”; the mutagenic call under setting [2] is “inactive; negative”; the mutagenic call (Test System: AMES SALMONELLA TYPHIMURIUM, Strain/Indicator: TA100, Metabolic Activation: RAT, LIVER, S-9, AROCLOR 1254, Method: PREINCUBATION) is “inactive; negative”. Further, the mutagenic call (Test System: AMES SALMONELLA TYPHIMURIUM, Strain/Indicator: TA1535, Metabolic Activation: HAMSTER, LIVER, S-9, AROCLOR 1254, Method: PREINCUBATION) was “inactive; negative”; the mutagenic call under setting [3] is “inactive; negative”; the mutagenic call (Test System: AMES SALMONELLA TYPHIMURIUM, Strain/Indicator: TA1535, Metabolic Activation: RAT, LIVER, S-9, AROCLOR 1254, Method: PREINCUBATION) is “inactive; negative”; the mutagenic call (Test System: AMES SALMONELLA TYPHIMURIUM, Strain/Indicator: TA1537, Metabolic Activation: HAMSTER, LIVER, S-9, AROCLOR 1254, Method: PREINCUBATION) was “inactive; negative”; the mutagenic call (Test System: AMES SALMONELLA TYPHIMURIUM, Strain/Indicator: TA1537, Metabolic Activation: NONE, Method: PREINCUBATION) is “inactive; negative”; the mutagenic call (Test System: AMES SALMONELLA TYPHIMURIUM, Strain/Indicator: TA1537, Metabolic Activation: RAT, LIVER, S-9, AROCLOR 1254, Method: PREINCUBATION) was “inactive; negative”.

`O=CN(O)c1ccc(Cl)cc1`: the mutagenic call is “inactive; negative” (Test System: AMES SALMONELLA TYPHIMURIUM, Strain/Indicator: TA98, Metabolic Activation: NONE, Method: STANDARD PLATE); “active; positive” (Test System: AMES SALMONELLA TYPHIMURIUM, Strain/Indicator: TA98, Metabolic Activation: RAT, LIVER, S-9, AROCLOR 1254, Method: STANDARD PLATE); “inactive; negative” (Test System: AMES SALMONELLA TYPHIMURIUM, Strain/Indicator: TA100, Metabolic Activation: NONE, Method: STANDARD PLATE); “active; positive” (Test System: AMES SALMONELLA TYPHIMURIUM, Strain/Indicator: TA100, Metabolic Activation: RAT, LIVER, S-9, AROCLOR 1254, Method: STANDARD PLATE).

Consider `Cc1ccc(NO)cc1[N+](=O)[O-]`, for which the mutagenic call (Test System: AMES SALMONELLA TYPHIMURIUM, Strain/Indicator: TA98, Metabolic Activation: NONE, Method: SUSPENSION/PLATE) is “inactive; negative”; the mutagenic call (Test System: AMES SALMONELLA TYPHIMURIUM, Strain/Indicator: TA98, Metabolic Activation: RAT, LIVER, S-9, PHENOBARBITAL AND 5,6-BENZOFLAVONE, Method: SUSPENSION/PLATE) is “inactive; negative”; the mutagenic call (Test System: AMES SALMONELLA TYPHIMURIUM, Strain/Indicator: TA100, Metabolic Activation: NONE, Method: SUSPENSION/PLATE) was “inactive; negative”; the mutagenic call (Test System: AMES SALMONELLA TYPHIMURIUM, Strain/Indicator: TA100, Metabolic Activation: RAT, LIVER, S-9, PHENOBARBITAL AND 5,6-BENZOFLAVONE, Method: SUSPENSION/PLATE) is “inactive; negative”.
